This is an account of results in publication PMC8224453, “A New PqsR Inverse Agonist Potentiates Tobramycin Efficacy to Eradicate Pseudomonas aeruginosa Biofilms” (Advanced Science, 2021).

The target in one data set is T1, PqsR (Pseudomonas aeruginosa, UniProt Q9I4X0).
T1 construct: which expresses PqsR and the β-galactosidase LacZ under the control of the pqsA promoter; expressed in transfected cells; host or cells: E. coli DH5α carrying plasmid pEAL08-2
As to the kind of experiment: PqsR β-galactosidase reporter-gene assay in E. coli DH5α. The class given is cell-based. The protocol: 3. Primary Activity Assays
The inverse agonistic/antagonistic activity of potential PqsR ligands was evaluated in a β-galactosidase reporter gene assay in E. coli as previously described.[3] In short, test compounds were co-incubated with E. coli DH5α cells containing the plasmid pEAL08-2,[4] which expresses PqsR and the β-galactosidase LacZ under the control of the pqsA promoter.
The inverse agonistic/antagonistic activity of compounds was measured in the presence of 50 nM PQS. After incubation, galactosidase activity was quantified photometrically and expressed as ratio of controls. The given IC50 values represent the mean of at least two independent experiments using at least eight different concentrations of test compound with n = 4. Non-linear regression analysis was performed using OriginPro 2020. […]

For data set [1], the system named is alkylquinolones PQS and HHQ in P. aeruginosa PA14. Description: Alkylquinolone inhibition assay in PA14. The format is cell-based. As to conditions: Pseudomonas aeruginosa. The protocol: 4. Secondary Activity Assays
4.1. Alkylquinolone Inhibition Assay
The inhibitory effect of the synthesized compounds on alkylquinolone production in PA was measured as previously described with the modification that wt PA14 was used instead of PA14pqsH.[6] Briefly, P. aeruginosa PA14 cultures were grown in the presence of DMSO as a control or DMSO solutions of inhibitors for 17 h. HHQ and PQS as well as HQNO were quantified from ethyl acetate extracts using 5,6,7,8-tetradeutero-2-heptyl-4(1H)-quinolone (HHQ-d4) as internal standard (IS). LC-ESI-MS/MS analysis was performed on a Dionex […]
(1 picture or pasted object on this page, not shown here)
Scientific, Waltham MA) with the following conditions: Zorbax Eclipse XDB 80 Å C18 5 µm 4.6 x 50 mm column (Agilent, Santa Clara, CA, USA); eluent A – H2O with 0.1% trifluoroacetic acid (TFA), 0.1% pentafluoropropionic acid (PFPA), 0.1% heptafluorobutyric acid (HFBA); eluent B – acetonitrile with 0.1% TFA, 0.1% PFPA, 0.1% HFBA; isocratic 50% A; flow – 0.7 mL/min. TSQ Quantum Access Max (Thermo Fisher Scientific, Waltham, MA, USA) instrument parameters: Spray voltage 3500 V, vaporizer temperature 370 °C, sheath gas pressure 35 psi, aux gas pressure 30 psi, capillary temperature 270 °C, collision pressure 1.5 mTorr, positive ionization mode. For AQ analyte reaction monitoring parameters […]
Data acquisition and quantification was performed using Xcalibur software with the use of a calibration curve relative to the area of the IS. IC50 values were calculated according to the procedure of the pyocyanin assay (see above).
Table S1: LC-ESI-MS/MS reaction monitoring parameters of AQ analytes in positive ionization mode. precursor product collision tube lens retention ion m/z ion m/z energy (V) offset (V) time (min)
Chemical and biological materials for in vitro assays: All chemicals were purchased from Sigma-Aldrich unless otherwise specified. Yeast extract was obtained from Fluka. Bacto™ Tryptone were obtained from BD Biosciences. Luria Bertani (LB) agar was obtained from Carl Roth. Gibco® PBS was obtained from Life Te chnologies. Purified water was prepared by a Milli-Q water purification system (Merk Millipore, Billerica, MA). The PA strain PA14 wild type (PA14 wt) was purchased from DSMZ, the German Collection of Microorganism and Cell Cultures GmbH (PA14 = DSMZ19882) and cultured in minimal proteose peptone glucose ammonium salt (PPGAS) medium. PPGAS was composed of 1 g/L NH4Cl, 1.5 g/L KCl, 19 g/L Tris-HCl, 10 g/L peptone, 5 g/L glucose and 0.1 g/L MgSO4∙7H2O. The pH value of the medium was adjusted to 7.2 ± 0.2 and sterilized before use. Agar solution was […]

The nature of data set [2]: Kinetic turbidimetric solubility assay. The class given is physicochemical. The note with it: PBS; for solubility kinetic at 5 min: aqueous buffer, kinetic from dmso stock, read-out: Kinetic solubility S kin. As for the experimental part:
5.4. Kinetic Turbidimetric Solubility Assay
The desired compounds were sequentially diluted in DMSO in a 96-well plate. A 3 µL of each well were transferred into another three 96-well plates, followed by addition of 147 µL of PBS. Plates were shaken for 5 min at 600 rpm at room temperature (r.t.), and the absorbance at 620 nm was measured. Absorbance values were normalized by blank […]
subtraction and plotted using GraphPad Prism 8.4.2 (GraphPad Software, San Diego, CA, […]

Data set [3] in a line: Metabolic stability half-life (matrix not given). The format is in vitro ADME. The note with it: matrix not stated; read-out: metabolic stability half-life t 1/2. The protocol:
First, we evaluated the most promising compounds considering in vitro pharmacokinetic properties such as solubility and metabolic stability. […] Compounds 4 and 19 were moderately stable with half‐lives of 10 and 19 min, respectively.

The target of a further data set is T2, CYP1A (Homo sapiens, UniProt P05177).
T2 construct: Cyprotex (contract assay)
As to the kind of experiment: CYP inhibition (Cyprotex). The note with it: read-out: CYP inhibition 1A. The class given is in vitro ADME. The protocol:
(§1) 5.2. CYP and hERG inhibition
(§2) Assessment of in vitro drug safety regarding Cytochrom P450 (CYP) inhibition and inhibiton of human ether-à-go-go related gene (hERG) channel with a functional (patch-clamp-based) assay were performed at Cyprotex. Detailed information about the assays can be found in: https://www.cyprotex.com/admepk/in-vitro-metabolism/cytochrome-p450-inhibition, and […]

The target of the next data set is T3, CYP2C19 (Homo sapiens, UniProt P33261).
T3 construct: Cyprotex (contract assay)
As to the kind of experiment: CYP inhibition (Cyprotex). The format is in vitro ADME. As to conditions: read-out: CYP inhibition 2C19. The protocol:
as §1, §2

Another data set deals with T4, CYP2C9 (Homo sapiens, UniProt P11712).
T4 construct: Cyprotex (contract assay)
As to the kind of experiment: CYP inhibition (Cyprotex). The format is in vitro ADME. As to conditions: read-out: CYP inhibition 2C9. As for the experimental part:
as §1, §2

Another data set concerns the target T5, CYP2D6 (Homo sapiens, UniProt P10635).
T5 construct: Cyprotex (contract assay)
As to the kind of experiment: CYP inhibition (Cyprotex). The class given is in vitro ADME. As to conditions: read-out: CYP inhibition 2D6. As for the experimental part:
as §1, §2

The target in the next data set is T6, CYP3A4 (Homo sapiens, UniProt P08684).
T6 construct: Cyprotex (contract assay)
As to the kind of experiment: CYP inhibition (Cyprotex). The class given is in vitro ADME. As to conditions: read-out: CYP inhibition 3A4. As for the experimental part:
as §1, §2

The next data set concerns the target T7, hERG channel (Homo sapiens, UniProt Q12809).
T7 construct: Cyprotex (contract assay)
As to the kind of experiment: hERG functional patch-clamp inhibition assay. The format is cell-based. The protocol:
as §1, §2
(In general: Block of hERG is tested as a sign of cardiac risk.)

Data set [4] in a line: Cytotoxicity assay in HepG2. The format is cell-based. As to conditions: human, HepG2 cells, read-out: Cytotoxicity, viable cells.
Experimental: Hep G2 or HEK293 cells (2 × 10^5 cells per well) were seeded in 24-well, flat-bottomed plates. Culturing of cells, incubations, and OD measurements were performed as described previously with slight modifications.[8] Twenty-four hours after seeding the cells, the incubation was started by the addition of test compound in a final DMSO concentration of
1%. […] At least two independent measurements were performed for each compound.

The structures appear in SMILES notation. Converted amounts (≈) assume the structure as drawn. “And” between values parts separate entries of the source, which are not always exact repeats. Equal entries are not always repeated. Where two headings read alike, the source gives them in different places.

T3 sequence (P33261 whole entry): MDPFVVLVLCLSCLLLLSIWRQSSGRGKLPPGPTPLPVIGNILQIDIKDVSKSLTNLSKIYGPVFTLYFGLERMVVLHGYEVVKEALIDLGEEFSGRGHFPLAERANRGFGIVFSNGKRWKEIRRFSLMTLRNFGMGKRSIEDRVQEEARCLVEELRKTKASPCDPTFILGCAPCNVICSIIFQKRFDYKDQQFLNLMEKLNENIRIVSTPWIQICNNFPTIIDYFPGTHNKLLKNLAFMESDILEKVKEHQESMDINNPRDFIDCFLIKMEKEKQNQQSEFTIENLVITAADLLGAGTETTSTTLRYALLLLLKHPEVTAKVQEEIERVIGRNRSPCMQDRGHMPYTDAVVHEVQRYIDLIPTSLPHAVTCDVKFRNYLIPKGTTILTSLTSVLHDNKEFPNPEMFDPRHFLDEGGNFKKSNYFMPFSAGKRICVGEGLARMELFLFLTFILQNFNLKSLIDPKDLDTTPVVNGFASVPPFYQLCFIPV
T1 sequence (Q9I4X0 whole entry): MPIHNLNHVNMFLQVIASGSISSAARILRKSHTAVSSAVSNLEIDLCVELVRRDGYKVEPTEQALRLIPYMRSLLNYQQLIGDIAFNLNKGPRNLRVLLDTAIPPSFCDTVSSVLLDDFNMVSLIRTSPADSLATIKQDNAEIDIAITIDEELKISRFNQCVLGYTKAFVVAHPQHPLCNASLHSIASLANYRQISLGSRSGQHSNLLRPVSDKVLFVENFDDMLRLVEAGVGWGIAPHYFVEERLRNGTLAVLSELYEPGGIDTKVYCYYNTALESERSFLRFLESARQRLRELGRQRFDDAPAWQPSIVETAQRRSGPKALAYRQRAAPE
T4 sequence (P11712 whole entry): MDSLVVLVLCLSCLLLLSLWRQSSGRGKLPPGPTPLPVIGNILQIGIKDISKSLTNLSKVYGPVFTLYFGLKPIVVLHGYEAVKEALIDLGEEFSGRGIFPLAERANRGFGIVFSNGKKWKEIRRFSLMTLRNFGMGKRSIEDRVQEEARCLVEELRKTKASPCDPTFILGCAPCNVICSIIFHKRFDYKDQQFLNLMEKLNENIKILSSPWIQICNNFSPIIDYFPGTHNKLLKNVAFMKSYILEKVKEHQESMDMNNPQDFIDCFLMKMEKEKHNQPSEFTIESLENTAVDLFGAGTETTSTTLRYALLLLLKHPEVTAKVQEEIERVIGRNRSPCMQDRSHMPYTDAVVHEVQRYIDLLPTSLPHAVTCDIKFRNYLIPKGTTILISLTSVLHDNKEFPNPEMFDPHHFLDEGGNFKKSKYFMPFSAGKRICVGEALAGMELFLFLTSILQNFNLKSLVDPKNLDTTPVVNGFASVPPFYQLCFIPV
T5 sequence (P10635 whole entry): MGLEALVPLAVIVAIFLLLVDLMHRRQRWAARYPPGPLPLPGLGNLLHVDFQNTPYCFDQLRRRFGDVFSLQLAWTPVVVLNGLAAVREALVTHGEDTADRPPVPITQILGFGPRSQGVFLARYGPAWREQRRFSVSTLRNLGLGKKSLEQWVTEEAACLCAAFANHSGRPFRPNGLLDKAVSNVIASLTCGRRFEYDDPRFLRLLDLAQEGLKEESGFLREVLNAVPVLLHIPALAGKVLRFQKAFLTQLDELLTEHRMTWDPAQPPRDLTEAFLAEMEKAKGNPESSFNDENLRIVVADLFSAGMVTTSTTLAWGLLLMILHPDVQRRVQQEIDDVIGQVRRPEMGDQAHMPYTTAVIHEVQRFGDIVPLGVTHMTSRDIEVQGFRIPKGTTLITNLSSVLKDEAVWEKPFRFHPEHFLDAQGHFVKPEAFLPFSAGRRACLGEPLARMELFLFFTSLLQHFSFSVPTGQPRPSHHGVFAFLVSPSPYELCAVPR
T6 sequence (P08684 whole entry): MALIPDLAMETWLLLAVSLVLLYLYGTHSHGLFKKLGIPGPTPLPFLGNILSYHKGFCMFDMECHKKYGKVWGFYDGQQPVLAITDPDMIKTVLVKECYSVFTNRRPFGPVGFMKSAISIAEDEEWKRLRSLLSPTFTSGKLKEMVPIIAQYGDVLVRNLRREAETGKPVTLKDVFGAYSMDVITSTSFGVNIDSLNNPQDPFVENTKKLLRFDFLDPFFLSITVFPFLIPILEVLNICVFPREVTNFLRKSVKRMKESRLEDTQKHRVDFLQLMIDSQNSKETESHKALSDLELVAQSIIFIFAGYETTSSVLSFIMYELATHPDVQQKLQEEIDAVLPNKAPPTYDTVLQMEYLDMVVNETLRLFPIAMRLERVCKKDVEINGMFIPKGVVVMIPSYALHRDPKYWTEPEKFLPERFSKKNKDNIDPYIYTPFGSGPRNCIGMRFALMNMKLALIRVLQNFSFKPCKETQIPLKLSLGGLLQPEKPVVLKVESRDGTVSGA
T7 sequence (Q12809 whole entry): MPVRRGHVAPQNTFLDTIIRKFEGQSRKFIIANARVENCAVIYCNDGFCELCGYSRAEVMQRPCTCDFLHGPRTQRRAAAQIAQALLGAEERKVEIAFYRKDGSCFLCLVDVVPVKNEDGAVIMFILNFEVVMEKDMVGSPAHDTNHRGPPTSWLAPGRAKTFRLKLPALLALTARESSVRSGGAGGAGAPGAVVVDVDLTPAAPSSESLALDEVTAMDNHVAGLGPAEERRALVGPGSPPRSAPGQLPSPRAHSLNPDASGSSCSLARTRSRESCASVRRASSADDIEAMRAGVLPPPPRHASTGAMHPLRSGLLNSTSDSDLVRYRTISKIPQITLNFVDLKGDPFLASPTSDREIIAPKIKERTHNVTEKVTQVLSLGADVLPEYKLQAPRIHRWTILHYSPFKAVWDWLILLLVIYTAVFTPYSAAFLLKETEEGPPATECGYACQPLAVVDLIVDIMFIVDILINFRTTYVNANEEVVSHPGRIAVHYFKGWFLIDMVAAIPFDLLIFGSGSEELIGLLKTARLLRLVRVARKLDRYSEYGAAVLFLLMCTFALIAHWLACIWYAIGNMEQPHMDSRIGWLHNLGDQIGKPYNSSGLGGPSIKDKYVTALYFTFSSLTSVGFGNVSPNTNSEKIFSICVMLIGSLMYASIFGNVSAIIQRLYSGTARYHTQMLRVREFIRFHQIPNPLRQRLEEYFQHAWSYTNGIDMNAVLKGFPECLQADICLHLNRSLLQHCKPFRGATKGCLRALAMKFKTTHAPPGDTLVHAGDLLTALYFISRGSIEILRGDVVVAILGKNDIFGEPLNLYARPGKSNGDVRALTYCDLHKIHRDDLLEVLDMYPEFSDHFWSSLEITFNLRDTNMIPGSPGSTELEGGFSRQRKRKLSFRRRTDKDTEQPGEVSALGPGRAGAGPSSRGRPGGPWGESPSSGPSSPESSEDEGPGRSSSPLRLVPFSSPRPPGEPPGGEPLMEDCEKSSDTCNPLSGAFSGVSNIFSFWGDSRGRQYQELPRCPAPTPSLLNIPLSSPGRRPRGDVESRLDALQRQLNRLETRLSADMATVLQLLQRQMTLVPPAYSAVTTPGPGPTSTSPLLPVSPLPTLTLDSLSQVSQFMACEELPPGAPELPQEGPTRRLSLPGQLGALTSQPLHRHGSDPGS
T2 sequence (P05177 2-516 limits assumed): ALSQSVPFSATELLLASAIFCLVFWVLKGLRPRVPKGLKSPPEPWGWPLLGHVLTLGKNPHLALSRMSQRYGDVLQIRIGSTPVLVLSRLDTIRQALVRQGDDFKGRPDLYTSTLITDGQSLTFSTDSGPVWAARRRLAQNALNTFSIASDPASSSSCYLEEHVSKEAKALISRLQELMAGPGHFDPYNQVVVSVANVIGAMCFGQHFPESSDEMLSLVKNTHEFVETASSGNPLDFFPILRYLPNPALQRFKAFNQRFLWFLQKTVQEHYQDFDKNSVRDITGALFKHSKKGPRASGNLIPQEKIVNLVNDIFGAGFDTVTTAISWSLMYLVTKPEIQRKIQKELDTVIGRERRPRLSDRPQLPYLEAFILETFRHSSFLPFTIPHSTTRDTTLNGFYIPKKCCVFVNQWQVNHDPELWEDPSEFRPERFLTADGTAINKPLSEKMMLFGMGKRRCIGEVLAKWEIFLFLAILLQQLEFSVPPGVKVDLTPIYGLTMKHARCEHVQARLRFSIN

Usually solubility (kinetic) stands for solubility judged after dilution from a stock solution rather than from solid. In the case of `COc1ccc(-n2cc(CNc3ccnc(C(F)(F)F)c3)nn2)cc1Cl` [Compound 17], the IC50 was 0.008 µM at PqsR; 1.32 ± 0.39 µM in data set [1] (PA14, read-out: IC50(HHQ)); 2.08 ± 0.37 µM in [1] (PA14, read-out: IC50(PQS)); 22.1 µM on CYP1A; 3.6 µM and 3.55 µM at CYP2C19; over 25 µM at CYP2C9. Also, the IC50 at CYP2D6, at CYP3A4 and at hERG channel was over 25 µM in each case. The “fold higher activity than monosubstituted 11” value at PqsR (PqsR reporter-gene IC50, versus 11) came out at 10 fold. The “Kinetic solubility S kin” value in data set [2] worked out at 64.1 µM. Besides, the solubility (kinetic) at 5 min in data set [2] amounted to 64 µM (≈ 24.6 µg/mL). For the same compound, the half-life in data set [3] turned out to be 3 min. The viability at 48 h, 75 × 10^−6 M in data set [4] (HepG2, @75 × 10^−6 M) turned out to be 68%.

On to `FC(F)(F)c1cc(NCc2cn(-c3ccc(Oc4ccccc4)cc3)nn2)ccn1` [Compound 4], for which the IC50 was 0.011 µM against PqsR; 0.37 ± 0.07 µM in data set [1] (PA14, read-out: IC50(HHQ)); 1.13 µM in data set [1] (PA14, read-out: IC50(PQS)); over 25 µM on CYP1A; 20.3 µM at CYP2C19; 16.4 µM at CYP2C9. Further, the IC50 on CYP2D6 is over 25 µM; on CYP3A4 it was 15 µM; on hERG channel, over 25 µM. The kinetic solubility at 5 min in data set [2] is 7.7 µM (≈ 3.17 µg/mL). Besides, in data set [3], the half-life turned out to be 10 min. The viability at 48 h, 25 × 10^−6 M in data set [4] (HepG2, @25 × 10^−6 M) is 55%.
